One assay deals with T1, RET-CCDC6 (PTC1) (Homo sapiens, UniProt P07949).
T1 construct: purchased Reaction Biology Corp
The experiment in a line: Kinase panel inhibition, radiolabeled [γ-33P] ATP (Reaction Biology Corp). Type of assay: biochemical. The note with it: ATP 1 µM; for remaining activity at 10 µM: compound at 10 uM; for remaining activity at 30 µM: compound at 30uM.

A further assay concerns the target T2, RET (G810S/M918T) (Homo sapiens, UniProt P07949, G810S/M918T).
T2 construct: purchased Reaction Biology Corp
The assay is described as above. It is filed as biochemical. The note with it: ATP 1 µM; for remaining activity at 10 µM: compound at 10 uM; for remaining activity at 30 µM: compound at 30uM.

The subject of the next assay is A-549. Nature of the assay: Cell proliferation inhibition, Cell Counting Kit-8, non-small cell lung cancer cell line. It is filed as cell-based. The settings on record: A-549 cell line; 72 hours incubation; test concentration not given. (In general: Tetrazolium assays rely on reduction of a dye to a coloured formazan, in cell work by metabolically active cells.)
Where [1] appears, read: Data 1, read-out: % Enzyme Activity (relative to DMSO controls) RET-CCDC6 (PTC1) Data 1.
Where [2] appears, read: Data 2, read-out: % Enzyme Activity (relative to DMSO controls) RET-CCDC6 (PTC1) Data 2.
[3] abbreviates: Data 1, read-out: % Enzyme Activity (relative to DMSO controls) RET (G810S/M918T) Data 1.
[4] abbreviates: Data 2, read-out: % Enzyme Activity (relative to DMSO controls) RET (G810S/M918T) Data 2.

Molecules are shown by their SMILES. Like-named read-outs stand apart in the source and are kept apart here.

T1 sequence (P07949 whole entry, looked up): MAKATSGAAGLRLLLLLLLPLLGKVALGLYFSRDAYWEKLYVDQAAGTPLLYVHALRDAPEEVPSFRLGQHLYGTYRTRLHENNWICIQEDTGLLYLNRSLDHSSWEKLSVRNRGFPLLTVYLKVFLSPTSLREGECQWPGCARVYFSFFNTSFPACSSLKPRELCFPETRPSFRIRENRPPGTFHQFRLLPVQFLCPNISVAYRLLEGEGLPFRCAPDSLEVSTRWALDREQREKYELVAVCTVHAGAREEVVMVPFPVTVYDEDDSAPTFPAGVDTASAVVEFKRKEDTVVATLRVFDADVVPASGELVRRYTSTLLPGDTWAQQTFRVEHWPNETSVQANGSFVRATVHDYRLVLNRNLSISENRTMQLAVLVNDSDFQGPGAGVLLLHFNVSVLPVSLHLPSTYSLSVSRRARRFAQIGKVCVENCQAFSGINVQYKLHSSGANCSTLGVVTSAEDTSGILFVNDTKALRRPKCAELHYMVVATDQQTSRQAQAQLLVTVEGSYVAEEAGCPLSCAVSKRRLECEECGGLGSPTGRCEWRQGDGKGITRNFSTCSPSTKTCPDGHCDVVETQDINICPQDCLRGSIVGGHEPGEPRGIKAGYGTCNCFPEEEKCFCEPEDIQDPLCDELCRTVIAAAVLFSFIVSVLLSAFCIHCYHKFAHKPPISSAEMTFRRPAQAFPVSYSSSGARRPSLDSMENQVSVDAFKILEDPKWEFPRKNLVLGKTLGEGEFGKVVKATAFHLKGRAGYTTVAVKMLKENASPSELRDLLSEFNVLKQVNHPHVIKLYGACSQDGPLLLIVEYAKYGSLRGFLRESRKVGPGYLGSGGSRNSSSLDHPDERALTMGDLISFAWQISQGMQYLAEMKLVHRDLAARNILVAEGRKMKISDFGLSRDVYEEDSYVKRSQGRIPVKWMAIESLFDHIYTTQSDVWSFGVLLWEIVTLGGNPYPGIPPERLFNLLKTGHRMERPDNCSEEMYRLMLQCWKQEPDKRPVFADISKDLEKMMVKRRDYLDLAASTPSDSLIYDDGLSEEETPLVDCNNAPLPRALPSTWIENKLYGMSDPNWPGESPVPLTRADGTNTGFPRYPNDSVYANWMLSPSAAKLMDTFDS
T2 sequence (P07949 29-1114 G810S/M918T): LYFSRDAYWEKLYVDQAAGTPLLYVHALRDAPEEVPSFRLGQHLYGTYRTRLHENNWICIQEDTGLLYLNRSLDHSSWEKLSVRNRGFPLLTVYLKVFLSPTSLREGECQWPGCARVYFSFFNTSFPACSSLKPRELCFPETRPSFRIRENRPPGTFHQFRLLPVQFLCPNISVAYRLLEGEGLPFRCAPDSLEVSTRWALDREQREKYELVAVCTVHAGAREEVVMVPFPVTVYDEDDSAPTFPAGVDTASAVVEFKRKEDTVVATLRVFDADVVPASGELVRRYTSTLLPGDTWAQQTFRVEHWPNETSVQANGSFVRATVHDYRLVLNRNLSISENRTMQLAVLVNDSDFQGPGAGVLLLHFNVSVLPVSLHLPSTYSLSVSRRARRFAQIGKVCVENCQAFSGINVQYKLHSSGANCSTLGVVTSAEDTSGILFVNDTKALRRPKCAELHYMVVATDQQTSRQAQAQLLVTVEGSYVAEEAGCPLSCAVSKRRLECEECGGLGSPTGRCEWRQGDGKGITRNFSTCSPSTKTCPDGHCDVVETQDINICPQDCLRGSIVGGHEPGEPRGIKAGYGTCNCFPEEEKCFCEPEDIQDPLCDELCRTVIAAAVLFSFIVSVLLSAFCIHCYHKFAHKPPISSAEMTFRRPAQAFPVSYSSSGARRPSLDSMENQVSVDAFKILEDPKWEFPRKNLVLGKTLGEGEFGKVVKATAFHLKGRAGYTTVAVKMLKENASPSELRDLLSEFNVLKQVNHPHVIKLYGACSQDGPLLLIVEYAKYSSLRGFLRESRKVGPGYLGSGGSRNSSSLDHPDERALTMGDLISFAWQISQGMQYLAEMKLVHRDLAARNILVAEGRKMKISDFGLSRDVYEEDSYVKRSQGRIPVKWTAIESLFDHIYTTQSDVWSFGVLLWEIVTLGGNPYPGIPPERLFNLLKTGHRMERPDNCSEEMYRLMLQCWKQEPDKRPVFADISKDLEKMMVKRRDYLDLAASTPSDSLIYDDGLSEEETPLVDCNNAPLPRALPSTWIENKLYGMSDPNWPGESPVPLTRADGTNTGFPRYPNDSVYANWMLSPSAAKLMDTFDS

On to `CCCNc1cc(-c2ccc(N3CC(Oc4cccc(F)c4)C3)nc2)c2nccnc2c1` [Example 4, 8-(6-(3-(3-fluorophenoxy)azetidin-1-yl)pyridin-3-yl)-N-propylquinoxalin-6-amine], for which the remaining activity at 10 µM at RET-CCDC6 (PTC1) (setting [1]) is 1.11%; on RET-CCDC6 (PTC1) (setting [2]), 1.31%; at RET (G810S/M918T) (setting [3]) it was -0.23%; at RET (G810S/M918T) (setting [4]) it was 0.04%. Besides, the “Cell Proliferation (% of control)” value with A-549 was 43.59%.

Regarding `CC(C)Nc1cc(-c2ccc(N3CC(Oc4cccc(F)c4)C3)nc2)c2nccnc2c1` [Example 5, 8-(6-(3-(3-fluorophenoxy)azetidin-1-yl)pyridin-3-yl)-N-isopropylquinoxalin-6-amine], the remaining activity at 10 µM on RET-CCDC6 (PTC1) (setting [1]) was 1.34%; at RET-CCDC6 (PTC1) (setting [2]) it was 0.72%; at RET (G810S/M918T) (setting [3]), 5.96%; on RET (G810S/M918T) (setting [4]), 6.14%. The “Cell Proliferation (% of control)” value with A-549 is given as 36.07%.

With `CCCCNc1cc(-c2ccc(N3CC(Oc4cccc(F)c4)C3)nc2)c2nccnc2c1` [Example 6, N-butyl-8-(6-(3-(3-fluorophenoxy)azetidin-1-yl)pyridin-3-yl)quinoxalin-6-amine], the remaining activity at 10 µM was determined as 1.05% on RET-CCDC6 (PTC1) (setting [1]), 1.32% on RET-CCDC6 (PTC1) (setting [2]), 2.18% on RET (G810S/M918T) (setting [3]) and 2.37% on RET (G810S/M918T) (setting [4]). In the assay on A-549, the “Cell Proliferation (% of control)” value came to 68.59%.

For `CC(C)CNc1cc(-c2ccc(N3CC(Oc4cccc(F)c4)C3)nc2)c2nccnc2c1` [Example 7, 8-(6-(3-(3-fluorophenoxy)azetidin-1-yl)pyridin-3-yl)-N-isobutylquinoxalin-6-amine], the remaining activity at 10 µM at RET-CCDC6 (PTC1) (setting [1]) was 0.85%; on RET-CCDC6 (PTC1) (setting [2]), 1.07%; at RET (G810S/M918T) (setting [3]) it was 4.28%; on RET (G810S/M918T) (setting [4]), 4.26%. In the assay on A-549, the “Cell Proliferation (% of control)” value is 53.57%.

`O=C(Nc1cc(-c2ccc(N3CC(Oc4cccc(F)c4)C3)nc2)c2nccnc2c1)c1ccccn1` [Example 9, N-(8-(6-(3-(3-fluorophenoxy)azetidin-1-yl)pyridin-3-yl)quinoxalin-6-yl)picolinamide]: the remaining activity at 10 µM at RET-CCDC6 (PTC1) (setting [1]) is 2.81%; at RET-CCDC6 (PTC1) (setting [2]), 3.74%; at RET (G810S/M918T) (setting [3]), 49.5%; on RET (G810S/M918T) (setting [4]), 50%. In the assay on A-549, the “Cell Proliferation (% of control)” value is given as 18.67%.

In the case of `CCCNc1cc(-c2ccc(N3CC[C@H](NC(=O)c4ccccc4F)C3)nc2)c2nccnc2c1` [Example 13, (S)-2-fluoro-N-(1-(5-(7-(propylamino)quinoxalin-5-yl)pyridin-2-yl)pyrrolidin-3-yl)benzamide], the remaining activity at 10 µM was 0.91% at RET-CCDC6 (PTC1) (setting [1]), 1.28% on RET-CCDC6 (PTC1) (setting [2]), -0.06% on RET (G810S/M918T) (setting [3]) and -0.31% on RET (G810S/M918T) (setting [4]). Also, the “Cell Proliferation (% of control)” value in the assay on A-549 was 39.32%.

Regarding `CC(C)Nc1cc(-c2ccc(N3CC[C@H](NC(=O)c4ccccc4F)C3)nc2)c2nccnc2c1` [Example 14, (S)-2-fluoro-N-(1-(5-(7-(isopropylamino)quinoxalin-5-yl)pyridin-2-yl)pyrrolidin-3-yl)benzamide], the remaining activity at 10 µM on RET-CCDC6 (PTC1) (setting [1]) was 1.04%; on RET-CCDC6 (PTC1) (setting [2]) it was 0.72%; on RET (G810S/M918T) (setting [3]) it was 5.08%; at RET (G810S/M918T) (setting [4]), 4.68%. In addition, in the assay on A-549, the “Cell Proliferation (% of control)” value came out at 47.83%.

For `Nc1cc(-c2ccc(F)nc2)c2nccnc2c1` [Intermediate Compound 4, 8-(6-fluoropyridin-3-yl)quinoxalin-6-amine], the remaining activity at 30 µM on RET-CCDC6 (PTC1) (setting [1]) turned out to be 20.9%; on RET-CCDC6 (PTC1) (setting [2]) it was 19.4%; at RET (G810S/M918T) (setting [3]), 53.5%; on RET (G810S/M918T) (setting [4]) it was 54.1%.

Take `CNc1cc(-c2ccc(F)nc2)c2nccnc2c1` [Intermediate Compound 5, 8-(6-fluoropyridin-3-yl)-N-methylquinoxalin-6-amine]: the remaining activity at 30 µM on RET-CCDC6 (PTC1) (setting [1]) is 5.67%; on RET-CCDC6 (PTC1) (setting [2]) it was 3.67%; on RET (G810S/M918T) (setting [3]), 13.3%; at RET (G810S/M918T) (setting [4]), 14.4%.

For `CCCNc1cc(-c2ccc(F)nc2)c2nccnc2c1` [Intermediate Compound 7], the remaining activity at 30 µM at RET (G810S/M918T) (setting [3]) turned out to be 24%; at RET (G810S/M918T) (setting [4]), 22.3%.

In the case of `CC(C)Nc1cc(-c2ccc(F)nc2)c2nccnc2c1` [Intermediate Compound 8, 8-(6-fluoropyridin-3-yl)-N-isopropylquin oxalin-6-amine], the remaining activity at 30 µM at RET-CCDC6 (PTC1) (setting [1]) stood at 7.38%; at RET-CCDC6 (PTC1) (setting [2]) it was 7.71%; on RET (G810S/M918T) (setting [3]), 66.5%; on RET (G810S/M918T) (setting [4]) it was 68.4%.

Consider `CCCCNc1cc(-c2ccc(F)nc2)c2nccnc2c1` [Intermediate Compound 9, N-butyl-8-(6-fluoropyridin-3-yl)quinoxalin-6-amine], for which the remaining activity at 30 µM on RET (G810S/M918T) (setting [3]) came out at 24.8%; on RET (G810S/M918T) (setting [4]), 25.3%.

On to `CC(C)CNc1cc(-c2ccc(F)nc2)c2nccnc2c1` [Intermediate Compound 10, 8-(6-Fluoropyridin-3-yl)-N-isobutylquinoxalin-6-amine], for which the results for the remaining activity at 30 µM on RET (G810S/M918T) (setting [3]) and on RET (G810S/M918T) (setting [4]) were 43.1% and 40.1%, respectively.

With `O=C(Nc1cc(Br)c2nccnc2c1)c1ccccn1` [Intermediate Compound 12, N-(8-Bromoquinoxalin-6-yl)picolinamide], the remaining activity at 30 µM was 100% on RET (G810S/M918T) (setting [3]) and 96.4% at RET (G810S/M918T) (setting [4]).

For the compound `O=C(Nc1cc(-c2ccc(F)nc2)c2nccnc2c1)c1ccccn1` [Intermediate Compound 14, N-(8-(6-Fluoropyridin-3-yl)quinoxalin-6-yl)picolinamide], the remaining activity at 30 µM at RET (G810S/M918T) (setting [3]) and at RET (G810S/M918T) (setting [4]) was 92.5% throughout.

Regarding `Nc1cc(-c2cnc(Cl)nc2)c2nccnc2c1` [Intermediate Compound 16, 8-(2-chloropyrimidin-5-yl)quinoxalin-6-amine], the remaining activity at 30 µM came out at 13.2% at RET-CCDC6 (PTC1) (setting [1]), 13.3% on RET-CCDC6 (PTC1) (setting [2]), 40.8% on RET (G810S/M918T) (setting [3]) and 39.1% on RET (G810S/M918T) (setting [4]).

In the case of `CCCNc1cc(Br)c2nccnc2c1` [Intermediate Compound 19, 8-Bromo-N-propylquinoxalin-6-amine], the remaining activity at 30 µM on RET (G810S/M918T) (setting [3]) was found to be 27.6%; at RET (G810S/M918T) (setting [4]) it was 28.3%.

Regarding `CC(C)Nc1cc(Br)c2nccnc2c1` [Intermediate Compound 20, 8-Bromo-N-isopropylquin oxalin-6-amine], the remaining activity at 30 µM came out at 7.86% at RET-CCDC6 (PTC1) (setting [1]), 7.51% at RET-CCDC6 (PTC1) (setting [2]), 69.1% on RET (G810S/M918T) (setting [3]) and 73.1% at RET (G810S/M918T) (setting [4]).

Consider `CCCCNc1cc(Br)c2nccnc2c1` [Intermediate Compound 21, 8-Bromo-N-butylquinoxalin-6-amine], for which the remaining activity at 30 µM at RET (G810S/M918T) (setting [3]) was determined as 20.8%; at RET (G810S/M918T) (setting [4]), 21.7%.

`CC(C)CNc1cc(Br)c2nccnc2c1` [Intermediate Compound 22, 8-Bromo-N-isobutylquino xalin-6-amine]: the remaining activity at 30 µM was determined as 49.4% on RET (G810S/M918T) (setting [3]) and 48.9% at RET (G810S/M918T) (setting [4]).

The values above are taken from patent EP4796538A1, “NOVEL QUINOXALINE COMPOUNDS, MANUFACTURING METHOD THEREOF, AND USES THEREOF” (Gachon University of Industry-Academic Cooperation …, priority 2023, dated 2025).
